Converted amounts (≈) assume the structure as drawn.
Tested on: HL-60
Assay: Cytostatic activity against human HL60 cells after 72 hrs by MTT assay
Assay type: functional, cell-based
Conditions: HL-60, 72 h

SMILES: C=C1CO[C@@]2(O[C@H]3C[C@H]4[C@@H]5CC=C6C[C@@H](O)C[C@@H](O[C@@H]7OC[C@H](O)[C@H](O)[C@H]7O[C@@H]7O[C@@H](C)[C@H](OC(C)=O)[C@@H](OC(C)=O)[C@H]7OC(C)=O)[C@]6(C)[C@H]5CC[C@]4(C)[C@H]3[C@@H]2C)[C@@H](O)[C@H]1O[C@@H]1O[C@H](C)C(=O)[C@H](O)[C@H]1O [ACULEOSIDE A]
- IC50: 0.48 µg/mL (≈ 0.476 µM)

— ChEMBL document CHEMBL1150965, “Aculeoside B, a new bisdesmosidic spirostanol saponin from the underground parts of Ruscus aculeatus” (J Nat Prod, 1998)
